System: isolated stratum corneum (SC)
Assay: Evaluation of the moisturizing potential on isolated stratum corneum by measurement with a Corneometer
Conditions: for Mean DHCMiactive agent corr: 5% by weight in water/n-propanol (80/20), 5 μl/cm2 on SC, T4h vs T0h, 75% relative humidity, 25° C., relative percentage with carrier control 0% and glycerol 100%; for dielectric capacitance of the stratum corneum (SC): compounds at 5% by weight
Protocol: B): Evaluation of the Moisturizing Potential on Isolated Stratum Corneum by Measurement with a Corneometer
A test was performed to evaluate the moisturizing potential of the compounds of the invention formulated in an aqueous solution to an amount of 5% by weight relative to the total weight of the composition.
The technique makes it possible to measure the dielectric capacitance of the stratum corneum (SC), which depends on the mean dielectric permittivity value of the tissue. The dielectric permittivity varies greatly with the amount of water contained in the SC.
The SC samples are conditioned at 75% relative humidity and at 25° C. before/during the measurements and the treatment. The capacitance measurement is performed using a Corneometer™ (Courage & Khazaka, Germany).
The compound tested, compounds 1, 2 and 3 according to the invention or a moisturizing active agent such as glycerol (humectant positive control), is dissolved in a water/n-propanol mixture (80/20) and the solution is deposited onto the SC at a rate of 5 μl/cm^2 followed by air-drying for a total duration of 4 h.
A measurement is taken at T0h, before the treatment, and a measurement T4h is taken after total drying of the treatment.
The variation in the level of moisturization between T0h and T4h is calculated for each condition tested and compared to the references (carrier control and positive control) and to its T0h. The experiments are carried out on at least two different batches of SC and three samples of SC per condition tested.
The variation in the corneometer signal (HCM) after treatment is calculated for each SC sample: DHCMi=HCMi(T4h)−HCMi(T0h).
The results are then expressed as relative percentage in relation to the references, the carrier control and the glycerol positive control corresponding to a level of 0% and 100%, respectively.
Thus, for each experiment, the following are measured: • For the carrier control: DHCMicarrier=HCMicarrier(T4h)−HCMicarrier(T0h) • For the positive control: DHCMiglycerol=HCMiglycerol(T4h)−HCMiglycerol(T0h) • For the active agent: DHCMiactive agent=HCMiactive agent(T4h)−HCMiactive agent(T0h) • % DHCMiactive agent=(DHCMiactive agent−DHCMicarrier)/((DHCMiglycerol−DHCMicarrier) • As specified above, according to this mode of calculation: • % DHCMicarrier=0% • % DHCMiglycerol=100%
The moisturizing potential of an active agent is therefore determined as relative percentage in relation to the positive control.

Structure (SMILES)	Mean DHCMiactive agent corr [%]	dielectric capacitance of the stratum corneum (SC) (in words)	dielectric capacitance of the stratum corneum (SC) in comparison with glycerol at the same concentration (in words, 5% by weight)
CN1C(=O)OC(C2O[C@H](CO)[C@@H](O)[C@H](O)[C@H]2O)C1=O (some centres unmarked) [Compound 3]	51	high	–
O=C1N=C(O)C(C2OC[C@@H](O)[C@H](O)[C@H]2O)O1 (some centres unmarked) [Compound 2]	63	high	–
O=C1N=C(O)C(C2O[C@H](CO)[C@@H](O)[C@H](O)[C@H]2O)O1 (some centres unmarked) [Compound 1]	88	high	of the same order
OCC(O)CO [Glycerol, glycerol, reference compound]	100	–	–

From US11420960B2, “Use of 5-oxazolidine-2,4-dione C-glycoside derivatives as moisturizer for the skin” (L'OREAL, priority 2018, dated 2022)
